In US10532106B2 (priority 2014, dated 2020):
Read-outs that look alike come from different tables or passages of the source. Numbered stars: 1 amine (or outer) side, 2 acyl side, 3 side chain; on linkers, the order of the positions; unused ones are H or OH. Bridge positions count the residues as written; N and C are the ends. Square brackets hold non-standard residues; d marks the D form. Peptide text beside a SMILES is read from it. Phe(4-Br) = N[C@@H](Cc1ccc(Br)cc1)C(=O)O; 1Nal = N[C@@H](Cc1cccc2ccccc12)C(=O)O; 2Nal = N[C@@H](Cc1ccc2ccccc2c1)C(=O)O; TBMB = c1c(C[*:1])cc(C[*:3])cc1C[*:2]; Cha = N[C@@H](CC1CCCCC1)C(=O)O; Chg = N[C@H](C(=O)O)C1CCCCC1; Phg = N[C@H](C(=O)O)c1ccccc1; Tle = CC(C)(C)[C@H](N)C(=O)O

Target: T1, MT1-MMP hemopexin domain (Homo sapiens, UniProt P50281)
T1 construct: residues Cys319-Gly511 from the human gene; His6 (N); made in house; host or cells: HEK293 (transient), pEXPR-IBA42 vector
Assay: Competition assay using fluorescence polarisation
Assay type: binding
Settings: read-out: Kd
From the text: Here, a pre-formed complex of PEX with the fluorescent PEX-binding tracer is titrated with free, non-fluoresceinated bicyclic peptide. Since all 17-69-based peptides are expected to bind at the same site, the titrant will displace the fluorescent tracer from PEX. Dissociation of the complex can be measured quantitatively, and the Kd of the competitor (titrant) to the target protein determined. The advantage of the competition method is that the affinities of non-fluoresceinated bicyclic peptides can be determined accurately and rapidly.
Subsequently, the non-fluorescent competitor bicyclic peptide (usually just the bicycle core sequence) is titrated, such that it displaces the fluorescent tracer from the target protein. The displacement of the tracer is measured and associated with a drop in fluorescence polarisation. The drop in fluorescence polarisation is proportional to the fraction of target protein bound with the non-fluorescent titrant, and thus is a measure of the affinity of titrant to target protein.
The raw data is fit to the analytical solution of the cubic equation that describes the equilibria between fluorescent tracer, titrant, and binding protein. The fit requires the value of the affinity of fluorescent tracer to the target protein, which can be determined separately by direct binding FP experiments (see previous section).

[1] = Table 2, FP method Competition, tracer A-(17-69-07)-A-Sar6-K(Fluorescein)
[2] = Table 8, substitutions at position 4
[3] = Table 9, tolerated substitutions at positions 9 and 11

| SMILES | Kd [2] [nM] | other results |
| --- | --- | --- |
| CC[C@H](C)[C@@H]1NC(=O)[C@H](CC(=O)O)NC(=O)[C@H](Cc2ccc(O)cc2)NC(=O)[C@H](Cc2ccccc2)NC(=O)[C@H](CC(=O)O)NC(=O)[C@H](CCC(=O)O)NC(=O)[C@@H]2CSCc3cc(cc(c3)CSC[C@@H](C(=O)N[C@@H](C)C(N)=O)NC1=O)CSC[C@H](NC(=O)[C@H](C)N)C(=O)N[C@@H](Cc1ccccc1)C(=O)NCC(=O)N[C@@H](CCC(=O)O)C(=O)N[C@@H](Cc1ccccc1)C(=O)NCC(=O)N2 [17-69-02-N001, A-(17-69-02)-A] (H-ACFGEFGCEDFYDICA-NH2; linker 2-8-15 via TBMB) |  | Kd [1]: 191 nM |
| CC[C@H](C)[C@@H]1NC(=O)[C@H](CC(=O)O)NC(=O)[C@H](Cc2ccc(O)cc2)NC(=O)[C@H](Cc2ccccc2)NC(=O)[C@H](CC(=O)O)NC(=O)[C@H](CCC(=O)O)NC(=O)[C@@H]2CSCc3cc(cc(c3)CSC[C@@H](C(=O)N[C@@H](C)C(N)=O)NC1=O)CSC[C@H](NC(=O)[C@H](C)N)C(=O)N[C@@H](C(C)C)C(=O)N[C@@H](CC(N)=O)C(=O)N[C@@H](CCC(=O)O)C(=O)N[C@@H](Cc1ccccc1)C(=O)NCC(=O)N2 [17-69-03-N001, A-(17-69-03)-A] (H-ACVNEFGCEDFYDICA-NH2; linker 2-8-15 via TBMB) |  | Kd [1]: 16.7 nM |
| CC[C@H](C)[C@@H]1NC(=O)[C@H](CC(=O)O)NC(=O)[C@H](Cc2ccc(O)cc2)NC(=O)[C@H](Cc2ccccc2)NC(=O)[C@H](CC(=O)O)NC(=O)[C@H](CCC(=O)O)NC(=O)[C@@H]2CSCc3cc(cc(c3)CSC[C@@H](C(=O)N[C@@H](C)C(N)=O)NC1=O)CSC[C@H](NC(=O)[C@H](C)N)C(=O)N[C@@H](Cc1ccc(O)cc1)C(=O)N[C@@H](CC(N)=O)C(=O)N[C@@H](CCC(=O)O)C(=O)N[C@@H](Cc1ccccc1)C(=O)NCC(=O)N2 [17-69-07-N001, A-(17-69-07)-A] |  | Kd (Table 3, Competition, tracer A-(17-69-12)-A-Sar6-K(Fluorescein)): 1.65 ± 0.29 nM |
| CC[C@H](C)[C@@H]1NC(=O)[C@H](CC(=O)O)NC(=O)[C@H](Cc2ccc(O)cc2)NC(=O)[C@H](Cc2ccccc2)NC(=O)[C@H](CC(=O)O)NC(=O)[C@H](CCC(=O)O)NC(=O)[C@@H]2CSCc3cc(cc(c3)CSC[C@H](NC(C)=O)C(=O)N[C@@H](Cc3ccc(O)cc3)C(=O)N[C@@H](CC(N)=O)C(=O)N[C@@H](CCC(=O)O)C(=O)N[C@@H](Cc3ccc(O)cc3)C(=O)NCC(=O)N2)CSC[C@@H](C(N)=O)NC1=O [17-69-07-N057, Ac-(17-69-07) Tyr4] (Ac-CYNEYGCEDFYDIC-NH2; linker 1-7-14 via TBMB) | 1.78 ± 0.45 |  |
| CC[C@H](C)[C@@H]1NC(=O)[C@H](CC(=O)O)NC(=O)[C@H](Cc2ccc(O)cc2)NC(=O)[C@H](Cc2ccccc2)NC(=O)[C@H](CC(=O)O)NC(=O)[C@H](CCC(=O)O)NC(=O)[C@@H]2CSCc3cc(cc(c3)CSC[C@H](NC(C)=O)C(=O)N[C@@H](Cc3ccc(O)cc3)C(=O)N[C@@H](CC(N)=O)C(=O)N[C@@H](CCC(=O)O)C(=O)N[C@@H](Cc3ccccc3)C(=O)N3CCC[C@@H]3C(=O)N2)CSC[C@@H](C(N)=O)NC1=O [17-69-07-N059, Ac-(17-69-07) D-Pro5] (Ac-CYNEF[dP]CEDFYDIC-NH2; linker 1-7-14 via TBMB) |  | Kd (Table 6, D-Alanine substitutions in first loop): > 5000 nM |
| CC[C@H](C)[C@@H]1NC(=O)[C@H](CC(=O)O)NC(=O)[C@H](Cc2ccc(O)cc2)NC(=O)[C@H](Cc2ccccc2)NC(=O)[C@H](CC(=O)O)NC(=O)[C@H](CCC(=O)O)NC(=O)[C@@H]2CSCc3cc(cc(c3)CSC[C@H](NC(C)=O)C(=O)N[C@@H](Cc3ccc(O)cc3)C(=O)N[C@@H](CC(N)=O)C(=O)N[C@@H](CCC(=O)O)C(=O)N[C@@H](C3CCCCC3)C(=O)NCC(=O)N2)CSC[C@@H](C(N)=O)NC1=O [17-69-07-N065, Ac-(17-69-07) Chg4] (Ac-CYNE[Chg]GCEDFYDIC-NH2; linker 1-7-14 via TBMB) | > 5000 |  |
| CC[C@H](C)[C@@H]1NC(=O)[C@H](CC(=O)O)NC(=O)[C@H](Cc2ccc(O)cc2)NC(=O)[C@H](Cc2ccccc2)NC(=O)[C@H](CC(=O)O)NC(=O)[C@H](CCC(=O)O)NC(=O)[C@@H]2CSCc3cc(cc(c3)CSC[C@H](NC(C)=O)C(=O)N[C@@H](Cc3ccc(O)cc3)C(=O)N[C@@H](CC(N)=O)C(=O)N[C@@H](CCC(=O)O)C(=O)N[C@@H](Cc3cccc4ccccc34)C(=O)NCC(=O)N2)CSC[C@@H](C(N)=O)NC1=O [17-69-07-N067, Ac-(17-69-07) 1NAl4] (Ac-CYNE[1Nal]GCEDFYDIC-NH2; linker 1-7-14 via TBMB) | 0.36 ± 0.12 |  |
| CC[C@H](C)[C@@H]1NC(=O)[C@H](CC(=O)O)NC(=O)[C@H](Cc2ccc(O)cc2)NC(=O)[C@H](Cc2ccccc2)NC(=O)[C@H](CC(=O)O)NC(=O)[C@H](CCC(=O)O)NC(=O)[C@@H]2CSCc3cc(cc(c3)CSC[C@H](NC(C)=O)C(=O)N[C@@H](Cc3ccc(O)cc3)C(=O)N[C@@H](CC(N)=O)C(=O)N[C@@H](CCC(=O)O)C(=O)N[C@@H](Cc3ccc4ccccc4c3)C(=O)NCC(=O)N2)CSC[C@@H](C(N)=O)NC1=O [17-69-07-N068, Ac-(17-69-07) 2NAl4] (Ac-CYNE[2Nal]GCEDFYDIC-NH2; linker 1-7-14 via TBMB) | 0.7 ± 0.19 |  |
| CC[C@H](C)[C@@H]1NC(=O)[C@H](CC(=O)O)NC(=O)[C@H](Cc2ccc(O)cc2)NC(=O)[C@H](Cc2ccccc2)NC(=O)[C@H](CC(=O)O)NC(=O)[C@H](CCC(=O)O)NC(=O)[C@@H]2CSCc3cc(cc(c3)CSC[C@H](NC(C)=O)C(=O)N[C@@H](Cc3ccc(O)cc3)C(=O)N[C@@H](CC(N)=O)C(=O)N[C@@H](CCC(=O)O)C(=O)N[C@@H](c3ccccc3)C(=O)NCC(=O)N2)CSC[C@@H](C(N)=O)NC1=O [17-69-07-N071, Ac-(17-69-07) Phg4] (Ac-CYNE[Phg]GCEDFYDIC-NH2; linker 1-7-14 via TBMB) | 628 |  |
| CC[C@H](C)[C@@H]1NC(=O)[C@H](CC(=O)O)NC(=O)[C@H](Cc2ccc(O)cc2)NC(=O)[C@H](Cc2ccccc2)NC(=O)[C@H](CC(=O)O)NC(=O)[C@H](CCC(=O)O)NC(=O)[C@@H]2CSCc3cc(cc(c3)CSC[C@H](NC(C)=O)C(=O)N[C@@H](Cc3ccc(O)cc3)C(=O)N[C@@H](CC(N)=O)C(=O)N[C@@H](CCC(=O)O)C(=O)N[C@@H](C(C)(C)C)C(=O)NCC(=O)N2)CSC[C@@H](C(N)=O)NC1=O [17-69-07-N072, Ac-(17-69-07) tBuGly4] (Ac-CYNE[Tle]GCEDFYDIC-NH2; linker 1-7-14 via TBMB) | > 5000 |  |
| CC(=O)N[C@H]1CSCc2cc3cc(c2)CSC[C@H](NC(=O)CNC(=O)[C@H](Cc2ccccc2)NC(=O)[C@H](CCC(=O)O)NC(=O)[C@H](CC(N)=O)NC(=O)[C@H](Cc2ccc(O)cc2)NC1=O)C(=O)N[C@@H](CCC(=O)O)C(=O)N[C@@H](CC(=O)O)C(=O)N[C@@H](Cc1ccccc1)C(=O)N[C@@H](Cc1ccc(O)cc1)C(=O)N[C@@H](CC(=O)O)C(=O)N[C@@H](C(C)(C)C)C(=O)N[C@H](C(N)=O)CSC3 [17-69-07-N100, Ac-(17-69-07) tBuGly11] (Ac-CYNEFGCEDFYD[Tle]C-NH2; linker 1-7-14 via TBMB) |  | Kd [3]: 1.56 ± 1.14 nM |
| CC[C@H](C)[C@@H]1NC(=O)[C@H](CC(=O)O)NC(=O)[C@H](Cc2ccc(O)cc2)NC(=O)[C@H](Cc2ccccc2)NC(=O)[C@H](CC(=O)O)NC(=O)[C@H](CCC(=O)O)NC(=O)[C@@H]2CSCc3cc(cc(c3)CSC[C@H](NC(C)=O)C(=O)N[C@@H](Cc3ccc(O)cc3)C(=O)N[C@@H](CC(N)=O)C(=O)N[C@@H](CCC(=O)O)C(=O)N[C@@H](Cc3ccccc3)C(=O)N[C@H](CCCNC(=N)N)C(=O)N2)CSC[C@@H](C(N)=O)NC1=O [17-69-07-N120, Ac-(17-69-07) D-Arg5] (Ac-CYNEF[dR]CEDFYDIC-NH2; linker 1-7-14 via TBMB) |  | Kd (Table 7, substitutions at position 5): 4.24 ± 1.48 nM |
| CC[C@H](C)[C@@H]1NC(=O)[C@H](CC(=O)O)NC(=O)[C@H](Cc2ccc(Br)cc2)NC(=O)[C@H](Cc2ccccc2)NC(=O)[C@H](CC(=O)O)NC(=O)[C@H](CCC(=O)O)NC(=O)[C@@H]2CSCc3cc(cc(c3)CSC[C@H](NC(C)=O)C(=O)N[C@@H](Cc3ccc(O)cc3)C(=O)N[C@@H](CC(N)=O)C(=O)N[C@@H](CCC(=O)O)C(=O)N[C@@H](Cc3ccccc3)C(=O)NCC(=O)N2)CSC[C@@H](C(N)=O)NC1=O [17-69-07-N130, Ac-(17-69-07) 4BrPhe9] (Ac-CYNEFGCEDF[Phe(4-Br)]DIC-NH2; linker 1-7-14 via TBMB) |  | Kd [3]: 2.45 ± 1.08 nM |
| CC[C@H](C)[C@@H]1NC(=O)[C@H](CC(=O)O)NC(=O)[C@H](Cc2ccc(O)cc2)NC(=O)[C@H](Cc2ccccc2)NC(=O)[C@H](CC(=O)O)NC(=O)[C@H](CCC(=O)O)NC(=O)[C@@H]2CSCc3cc(cc(c3)CSC[C@H](NC(C)=O)C(=O)N[C@@H](Cc3ccc(O)cc3)C(=O)N[C@@H](CC(N)=O)C(=O)N[C@@H](CCC(=O)O)C(=O)N[C@@H](Cc3ccc(Cl)c(Cl)c3)C(=O)NCC(=O)N2)CSC[C@@H](C(N)=O)NC1=O [17-69-07-N137, Ac-(17-69-07) 3,4-DCPhe4] | 1.85 ± 2.45 |  |
| CC[C@H](C)[C@@H]1NC(=O)[C@H](CC(=O)O)NC(=O)[C@H](Cc2ccc(O)cc2)NC(=O)[C@H](Cc2ccccc2)NC(=O)[C@H](CC(=O)O)NC(=O)[C@H](CCC(=O)O)NC(=O)[C@@H]2CSCc3cc(cc(c3)CSC[C@H](NC(C)=O)C(=O)N[C@@H](Cc3ccc(O)cc3)C(=O)N[C@@H](CC(N)=O)C(=O)N[C@@H](CCC(=O)O)C(=O)N[C@@H](CC3CCCCC3)C(=O)NCC(=O)N2)CSC[C@@H](C(N)=O)NC1=O [17-69-07-N139, Ac-(17-69-07) Cha4] (Ac-CYNE[Cha]GCEDFYDIC-NH2; linker 1-7-14 via TBMB) | 362 |  |
